According to patent US4820804A, “Analogs of [1,7-di-alanine, des-19-leucine]calcitonin” (Rorer Pharmaceutical Corporation, priority 1987, dated 1989):
Residues, ends and D or L forms follow the SMILES beside them. *: point of attachment. Propionyl = CCC(=O)*

Experiments:
[1] = system: serum calcium concentration; settings: rat, in vivo, sc
Experimental: SCT and synthetic salmon calcitonin standard. Rats were divided into four groups of seven animals, and each group was assigned at random to a dose of standard or test solution. Low and high doses were chosen from the linear portion of the dose-response curve. For the salmon calcitonin standard, the values were 0.7 and 2.1 mcg. peptide/100 g. BW. Peptides were given by subcutaneous injection (0.2 ml/100 g. BW) and blood was withdrawn 1 hour later for serum calcium determination. Sera are processed and analyzed within two hours of collection. Results were analyzed within two hours of collection.

[2] = Independent determination of the potency of the standard salmon calcitonin; settings: standard used in the rat assay, independently determined
Experimental: The biological potency of [N-alpha-Propionyl-1,7-Di-Ala,Des-19-Leu] salmon calcitonin was determined by comparing the reduction of serum calcium concentration which followed administration by graded doses of [N-alpha-Propionyl-1,7-Di-Ala,Des-19-Leu] SCT and synthetic salmon calcitonin standard. Rats were divided into four groups of seven animals, and each group was assigned at random to a dose of standard or test solution. Low and high doses were chosen from the linear portion of the dose-response curve. For the salmon calcitonin standard, the values were 0.7 and 2.1 mcg. peptide/100 g. BW. Peptides were given by subcutaneous injection (0.2 ml/100 g. BW) and blood was withdrawn 1 hour later for serum calcium determination. Sera are processed and analyzed within two hours of collection. […]. Results were analyzed by a 2×2 parallel line assay [Gaddum, J. H., J. Pharm. Pharmacol., 6, 345 (1953)]. The standard salmon calcitonin used was independently determined to contain greater than 4,000 IU/mg.

Compound | Potency [1] | potency content of standard salmon calcitonin [2]
CCC(=O)N[C@@H](CO)C(=O)N[C@@H](CC(N)=O)C(=O)N[C@@H](CC(C)C)C(=O)N[C@@H](CO)C(=O)N[C@H](C(=O)N[C@@H](C)C(=O)N[C@H](C(=O)N[C@@H](CC(C)C)C(=O)NCC(=O)N[C@@H](CCCCN)C(=O)N[C@@H](CC(C)C)C(=O)N[C@@H](CO)C(=O)N[C@@H](CCC(N)=O)C(=O)N[C@@H](CCC(=O)O)C(=O)N[C@@H](CC(C)C)C(=O)N[C@@H](Cc1c[nH]cn1)C(=O)N[C@@H](CCCCN)C(=O)N[C@@H](CCC(N)=O)C(=O)N[C@H](C(=O)N[C@@H](Cc1ccc(O)cc1)C(=O)N1CCC[C@H]1C(=O)N[C@@H](CCCNC(=N)N)C(=O)N[C@H](C(=O)N[C@@H](CC(N)=O)C(=O)N[C@H](C(=O)NCC(=O)N[C@@H](CO)C(=O)NCC(=O)N[C@H](C(=O)N1CCC[C@H]1C(N)=O)[C@@H](C)O)[C@@H](C)O)[C@@H](C)O)[C@@H](C)O)C(C)C)[C@@H](C)O [Des-1-Amino] (Propionyl-SNLSTAVLGKLSQELHKQTYPRTNTGSGTP-NH2) | 7300 Iu/mg | –
Salmon calcitonin [standard salmon calcitonin] | – | greater than 4,000 IU/mg
CCC(=O)N[C@@H](C)C(=O)N[C@@H](CO)C(=O)N[C@@H](CC(N)=O)C(=O)N[C@@H](CC(C)C)C(=O)N[C@@H](CO)C(=O)N[C@H](C(=O)N[C@@H](C)C(=O)N[C@H](C(=O)N[C@@H](CC(C)C)C(=O)NCC(=O)N[C@@H](CCCCN)C(=O)N[C@@H](CC(C)C)C(=O)N[C@@H](CO)C(=O)N[C@@H](CCC(N)=O)C(=O)N[C@@H](CCC(=O)O)C(=O)N[C@@H](CC(C)C)C(=O)N[C@@H](Cc1c[nH]cn1)C(=O)N[C@@H](CCCCN)C(=O)N[C@@H](CCC(N)=O)C(=O)N[C@H](C(=O)N[C@@H](Cc1ccc(O)cc1)C(=O)N1CCC[C@H]1C(=O)N[C@@H](CCCNC(=N)N)C(=O)N[C@H](C(=O)N[C@@H](CC(N)=O)C(=O)N[C@H](C(=O)NCC(=O)N[C@@H](CO)C(=O)NCC(=O)N[C@H](C(=O)N1CCC[C@H]1C(N)=O)[C@@H](C)O)[C@@H](C)O)[C@@H](C)O)[C@@H](C)O)C(C)C)[C@@H](C)O [N--Alpha-Propionyl, [N alpha-Propionyl, 1,7-Di-Alanine, Des-19-Leucine] salmon calcitonin] (Propionyl-ASNLSTAVLGKLSQELHKQTYPRTNTGSGTP-NH2) | 7600 Iu/mg | –
CC(C)C[C@H](NC(=O)[C@H](CCCCN)NC(=O)CNC(=O)[C@H](CC(C)C)NC(=O)[C@@H](NC(=O)[C@H](C)NC(=O)[C@@H](NC(=O)[C@H](CO)NC(=O)[C@H](CC(C)C)NC(=O)[C@H](CC(N)=O)NC(=O)[C@H](CO)NC(=O)[C@H](C)N)[C@@H](C)O)C(C)C)C(=O)N[C@@H](CO)C(=O)N[C@@H](CCC(N)=O)C(=O)N[C@@H](CCC(=O)O)C(=O)N[C@@H](CC(C)C)C(=O)N[C@@H](Cc1c[nH]cn1)C(=O)N[C@@H](CCCCN)C(=O)N[C@@H](CCC(N)=O)C(=O)N[C@H](C(=O)N[C@@H](Cc1ccc(O)cc1)C(=O)N1CCC[C@H]1C(=O)N[C@@H](CCCNC(=N)N)C(=O)N[C@H](C(=O)N[C@@H](CC(N)=O)C(=O)N[C@H](C(=O)NCC(=O)N[C@@H](CO)C(=O)NCC(=O)N[C@H](C(=O)N1CCC[C@H]1C(N)=O)[C@@H](C)O)[C@@H](C)O)[C@@H](C)O)[C@@H](C)O [Parent, [1,7 Di-Alanine, Des-19-Leucine]Salmon Calcitonin] (H-ASNLSTAVLGKLSQELHKQTYPRTNTGSGTP-NH2) | 7400 Iu/mg | –
